Results as given in patent US6759384B1, “Factor Xa inhibitors” (Aventis Pharmaceuticals Inc., priority 1994, dated 2004).
pEC50, pKi: −log10 of the molar value. Counter-ions that a name gives are not always drawn. Like-named read-outs stand apart in the source and are kept apart here. Starred links: 1 amine or outer side, 2 acyl side, 3 side chain; linkers in the order of their positions; H or OH if unused. Non-standard residues stand in square brackets, D forms with d. Residues, ends and D or L forms follow the SMILES beside them. No end group written: not given here. *: point of attachment. X1 = CC(C)CN([C@@H](Cc1ccc(O)cc1)C(=O)[*:2])[*:1]; 2Nal = N[C@@H](Cc1ccc2ccccc2c1)C(=O)O; Chg = N[C@H](C(=O)O)C1CCCCC1; Tfa = O=C(C(F)(F)F)*

Experiments:
factor Xa = details: background section; cited from earlier work
[1] = target: T1, human neutrophil elastase (Homo sapiens, UniProt P08246); test: Elastase chromogenic assay; type: biochemical; details: Table 2
T1 construct: purchased Athens Research and Technology, Inc; Athens Ga
T1 sequence (P08246 30-247 limits assumed): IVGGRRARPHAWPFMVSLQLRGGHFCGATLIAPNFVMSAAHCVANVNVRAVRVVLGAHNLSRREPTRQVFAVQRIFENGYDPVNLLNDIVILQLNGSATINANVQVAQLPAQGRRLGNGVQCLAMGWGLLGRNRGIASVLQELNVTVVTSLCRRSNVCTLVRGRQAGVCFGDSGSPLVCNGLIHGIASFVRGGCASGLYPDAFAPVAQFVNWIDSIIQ
Method: (§1) The ability of a compound of the invention to inhibit factor Xa, thrombin, plasmin, elastase and trypsin was assessed by determining the concentration of YIR peptide that inhibits enzyme activity by 50% (IC50). Purified enzymes were used in chromogenic assays. To determine the inhibition constant, the IC50 value was corrected for competition with substrate using the formula:
(§2) Ki=IC50×(1/{1+((substrate concentration)/substrate Km)})
Tris-Cl, pH 7.4, 300 mM NaCl, 2% (v/v) N-methyl-pyrrolidone, 0.01% (w/v) NaN3 buffer was used for this assay. The IC50 was determined as described in Example XXXVII.a., except that the substrate was succinyl-Ala-Ala-Ala-p-nitroanilide (Calbiochem-Nova Biochem Corp.; San Diego Calif.) and the enzyme was human neutrophil elastase (Athens Research and Technology, Inc.; Athens Ga.). The enzyme concentration was 75 nM and the substrate concentration was 600 μM.

human plasmin = target: T2, human plasmin (Homo sapiens, UniProt P00747); test: Plasmin chromogenic assay; type: biochemical; details: Table 2
T2 construct: the enzyme was human plasmin (Kabi); purchased Kabi
T2 sequence (P00747 581-810 limits assumed): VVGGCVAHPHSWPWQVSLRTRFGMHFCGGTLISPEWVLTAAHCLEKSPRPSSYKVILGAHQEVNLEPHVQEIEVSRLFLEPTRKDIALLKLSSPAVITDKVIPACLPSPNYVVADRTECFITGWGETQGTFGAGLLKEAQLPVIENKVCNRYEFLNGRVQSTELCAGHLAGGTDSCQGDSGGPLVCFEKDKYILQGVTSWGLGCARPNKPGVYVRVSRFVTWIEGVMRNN
T2 sequence (P00747 97-580 partner limits assumed): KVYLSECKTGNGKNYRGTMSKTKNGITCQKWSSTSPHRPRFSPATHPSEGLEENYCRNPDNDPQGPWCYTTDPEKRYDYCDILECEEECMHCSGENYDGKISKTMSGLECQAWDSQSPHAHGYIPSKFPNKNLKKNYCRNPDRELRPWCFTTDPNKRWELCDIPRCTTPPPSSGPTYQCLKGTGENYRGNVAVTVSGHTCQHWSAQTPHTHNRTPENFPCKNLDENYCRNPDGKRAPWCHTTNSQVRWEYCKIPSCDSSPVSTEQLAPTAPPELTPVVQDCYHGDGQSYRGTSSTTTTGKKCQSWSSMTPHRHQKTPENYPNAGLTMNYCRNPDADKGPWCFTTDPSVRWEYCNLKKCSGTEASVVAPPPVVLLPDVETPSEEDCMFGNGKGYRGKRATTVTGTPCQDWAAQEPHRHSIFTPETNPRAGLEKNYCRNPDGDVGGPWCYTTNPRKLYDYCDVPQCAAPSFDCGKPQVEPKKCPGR
Method: as §1, §2
TBS-P buffer was used for this assay. The IC50 was determined as described in Example XXXVII.a., except that the substrate was S-2251 ((D)-Val-L-Leu-L-Lys-p-nitroanilide; Kabi) and the enzyme was human plasmin (Kabi). The enzyme concentration was 5 nM and the substrate concentration was 300 uM.

human factor Xa = target: T3, human factor Xa (Homo sapiens, UniProt P00742); test: Factor Xa chromogenic assay; type: biochemical
T3 construct: purchased Enzyme Research Laboratories, Inc; South Bend Ind
T3 sequence (P00742 235-488 limits assumed): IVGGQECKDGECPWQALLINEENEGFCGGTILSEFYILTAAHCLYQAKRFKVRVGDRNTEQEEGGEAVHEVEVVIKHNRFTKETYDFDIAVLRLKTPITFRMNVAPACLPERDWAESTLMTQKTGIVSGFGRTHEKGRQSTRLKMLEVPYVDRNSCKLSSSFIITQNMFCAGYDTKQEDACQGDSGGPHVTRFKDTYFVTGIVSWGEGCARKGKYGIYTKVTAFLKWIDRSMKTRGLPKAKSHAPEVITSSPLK
T3 sequence (P00742 41-179 partner limits assumed): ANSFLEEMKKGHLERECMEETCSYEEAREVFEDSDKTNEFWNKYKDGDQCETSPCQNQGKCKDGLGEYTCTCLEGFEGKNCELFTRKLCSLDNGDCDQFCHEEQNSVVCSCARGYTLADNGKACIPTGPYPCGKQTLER
Method: as §1, §2
(Chen and Prusoff, Biochem. Pharmacol. 22:3099-[…] (1973), which is incorporated herein by reference).
TBS-P buffer (50 mM Tris-Cl, pH 7.8, 200 mM NaCl, 0.05% (w/v) PEG-8000, 0.02% (w/v) NaN3) was used for this assay. The IC50 was determined by combining in appropriate wells of a Costar half-area microtiter plate 25 μl human factor Xa (Enzyme Research Laboratories, Inc.; South Bend Ind.) in TBS-P; 40 μl 10% (v/v) DMSO in TBS-P (uninhibited control) or various concentrations of a peptide to be tested diluted in 10% (v/v) DMSO in TBS-P; and substrate S-2765 (Nα-benzyloxycarbonyl-D-Arg-Gly-L-Arg-p-nitroanilide; Kabi Pharmacia, Inc.; Franklin Ohio) in TBS-P.
The assays were performed by pre-incubating the peptide inhibitor plus enzyme for 10 min, then the assay was initiated by adding substrate to obtain a final volume of 100 μl. The initial velocity of chromogenic substrate hydrolysis was measured by the change in absorbance at 405 nm using a Bio-tek Instruments kinetic plate reader (Ceres UV900HDi) at 25° C. during the linear portion of the time course (usually 1-5 min after addition of substrate). The concentration of inhibitor that caused a 50% decrease in the rate of substrate hydrolysis was predicted by linear regression after plotting the relative rates of hydrolysis (compared to the uninhibited control) versus the log of the peptide concentration. The enzyme concentration was 0.5 nM and substrate concentration was 140 μM.

[2] = Ex vivo dilute prothrombin time assay after iv administration to rats; details: rat, in vivo, time at which approximately 50% of the initial anticoagulant activity remains in plasma, read-out: T1/2 Rat ex vivo
Method: (§3) The compounds of the invention were assessed for their ability to inhibit factor Xa activity. Effectiveness of various compounds was assessed by the in vitro prothrombin time (PT) assay using pooled human donor plasma. An ex vivo assay also was used in which plasma was collected at various times after intravenous (iv) administration of a compound to rats and to rabbits or intraduodenal administration to rats and analyzed using the PT assay to determine plasma half-life. The PT assay was initiated with a thromboplastin dilution selected to obtain an extended and highly reproducible coagulation endpoint, referred to as the “dilute PT assay” as described below. Effectiveness of various compounds also was determined using an in vivo rat arteriovenous shunt model of thrombosis.
(§4) Test compound was administered iv either through the tail vein (rat) or ear vein (rabbit) following an approved protocol. One ml blood samples were removed at timed intervals after administration of a test compound from a cannulated carotid artery (rat) or auricular artery (rabbit). After centrifugation to obtain PPP, the plasma was immediately stored on ice or frozen.
(§5) For dilute prothrombin time determination, the plasma was prewarmed and assayed as described above. Percent inhibition was calculated from a thromboplastin dilution curve, which was run with each series of samples, and used to determine the time at which approximately 50% of the initial anticoagulant activity remains in the plasma (T1/2).
Various compounds also were examined for anticoagulant activity using the ex vivo dilute prothrombin time assay following iv bolus administration of various doses in rats. […] The structures of all of the compounds listed in Table 5 were confirmed by MS and AA.

[3] = system: pooled human platelet poor plasma; test: In vitro dilute prothrombin time assay; type: biochemical; details: concentration giving 50% inhibition of coagulation, dilute PT
Method: The compounds of the invention were assessed for their ability to inhibit factor Xa activity. Effectiveness of various compounds was assessed by the in vitro prothrombin time (PT) assay using pooled human donor plasma. An ex vivo assay also was used in which plasma was collected at various times after intravenous (iv) administration of a compound to rats and to rabbits or intraduodenal administration to rats and analyzed using the PT assay to determine plasma half-life. The PT assay was initiated with a thromboplastin dilution selected to obtain an extended and highly reproducible coagulation endpoint, referred to as the “dilute PT assay” as described below. Effectiveness of various compounds also was determined using an in vivo rat arteriovenous shunt model of thrombosis. […]
Alternatively, the dilute prothrombin time assay was conducted using the “research” mode on an Instrumentation Laboratories (IL) ACL3000-plus automated coagulation instrument (IL; Milan, Italy). […] During the assay, a 50 μl sample (plasma separated by centrifugation) was mixed with 100 μl thromboplastin reagent and nephelometric readings were taken over 169 sec. Coagulation time was determined from the maximal rate of change of light scatter calculated by the instrument. Inhibition is expressed as percent activity as determined by comparison with the calibration curve.

[4] = Ex vivo dilute prothrombin time assay after iv administration to rabbits; details: rabbit, in vivo, time at which approximately 50% of the initial anticoagulant activity remains in plasma, read-out: T1/2 Rabbit ex vivo
Method: as §3, §4, §5

human thrombin = target: T4, human thrombin (Homo sapiens, UniProt P00734); test: Thrombin chromogenic assay; type: biochemical; details: Table 2
T4 construct: purchased Enzyme Research Laboratories, Inc; South Bend Ind
Method: as §1, §2
TBS-P buffer was used for this assay. The IC50 was determined as described in Example XXXVII.a., except that the substrate was S-2366 (L-PyroGlu-L-Pro-L-Arg-p-nitroanilide; Kabi) and the enzyme was human thrombin (Enzyme Research Laboratories, Inc.; South Bend Ind.). The enzyme concentration was 1 nM and substrate concentration was 175 μM.

[5] = target: T5, bovine pancreatic trypsin (Bos taurus, UniProt P00760); test: Trypsin chromogenic assay; type: biochemical; details: Table 2; * no significant inhibition at the highest concentration tested
T5 construct: purchased Sigma Type XIII, TPCK treated; host or cells: bovine pancreas
T5 sequence (P00760 24-246): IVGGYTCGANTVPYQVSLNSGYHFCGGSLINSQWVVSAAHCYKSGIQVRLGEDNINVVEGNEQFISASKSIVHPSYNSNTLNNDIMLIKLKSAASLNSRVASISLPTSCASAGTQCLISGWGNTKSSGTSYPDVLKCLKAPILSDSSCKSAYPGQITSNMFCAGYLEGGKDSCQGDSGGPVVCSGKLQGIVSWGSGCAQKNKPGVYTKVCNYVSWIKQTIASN
Method: as §1, §2
TBS-P buffer containing 10 mM CaCl2 was used for this assay. The IC50 determination was determined as described in Example XXXVII.a., except that the substrate was BAPNA (Benzoyl-L-Arg-p-nitroanilide; Sigma Chemical Co.; St. Louis Mo.) and the enzyme was bovine pancreatic trypsin (Type XIII, TPCK treated; Sigma). The enzyme concentration was 50 nM and the substrate concentration was 300 μM.

For `N=C(N)c1ccc(C=C2CCCCC(=Cc3ccc(C(=N)N)cc3)C2=O)cc1` [2,7-bis-(4-amidinobenzylidene)-cycloheptanone, reference compound], the pKi (factor Xa) is given as ~7.70.
For `CC[C@H](C)[C@H](NC(=O)[C@H](Cc1ccc(O)cc1)N(CC(C)C)C(C)=O)C(=O)N[C@@H](CCCNC(=N)N)C(=O)N[C@@H](CC(C)C)C(=O)N1CCC[C@H]1C(N)=O` [Ac-(iBu)Y-I-R-L-P, Ac-(iBu)Tyr-Ile-Arg-Leu-Pro-NH2] (Ac-[X1]IRLP-NH2), the pKi [1] was < 4.00, the pKi (human plasmin) was < 3.70 and the pKi (human factor Xa; Example XXXVI, read-out: Ki (inhibition of factor Xa activity)) was 7.40.
In the case of `CC(=O)N[C@@H](Cc1ccc2ccccc2c1)C(=O)N[C@H](C(=O)N[C@@H](CCCNC(=N)N)C(=O)N[C@@H](CC(C)C)C(=O)N1CCC[C@H]1C(N)=O)C1CCCCC1` [Ac—Nal(2)—Chg—R—L—P—NH2, Ac-Nal(2)-Chg-Arg-Leu-Pro-NH2] (Ac-[2Nal][Chg]RLP-NH2), the half-life [2] was 6 min, the pEC50 [3] was 6.85 and the half-life [4] was 5 min.
`CC(=O)N[C@@H](Cc1ccc(O)cc1)C(=O)N[C@H](C(=O)N[C@@H](CCCNC(=N)N)C(=O)N[C@@H](CC(C)C)C(=O)N1CCC[C@H]1C(N)=O)C1CCCCC1` [Ac—Y—Chg—R—L—P—NH2, Ac-Tyr-Chg-Arg-Leu-Pro-NH2] (Ac-Y[Chg]RLP-NH2) showed a half-life [2] of 5 min, a pEC50 [3] of 6.65 and a half-life [4] of 5 min.
Compound `CC(=O)N[C@@H](Cc1ccc(O)cc1)C(=O)N[C@H](C(=O)N[C@@H](CCCNC(=N)N)C(N)=O)C1CCCCC1` [Ac—Y—Chg—R—NH2] (Ac-Tyr-[Chg]-Arg-NH2) has a half-life [2] of 5 min and a half-life [4] of 5 min.
Work on `CC(C)C[C@H](NC(=O)[C@H](CCCNC(=N)N)NC(=O)[C@@H](NC(=O)[C@H](Cc1ccc(O)cc1)N(CC(C)C)C(=O)C(F)(F)F)C1CCCCC1)C(=O)N1CCC[C@H]1C(N)=O` [Tfa—(iBu)Y—Chg—R—L—P—NH2, Tfa-(iBu)Tyr-Chg-Arg-Leu-Pro-NH2] (Tfa-[X1][Chg]RLP-NH2) yielded a half-life [2] of 15 min and a half-life [4] of 10 min.
For “N-alpha-tosyl-Gly-p-amidinophenylalanine methyl ester [TENSTOP, reference compound]”, the pKi [1] is given as < 3.70, the pKi (human plasmin) is given as < 3.70 and the pKi (factor Xa) is given as ~6.10. The pKi (human factor Xa; Table 2, read-out: Ki Xa) was 5.70 and the pKi (human thrombin) was 5.70.
For “TAP: tick anticoagulant peptide, isolated from the tick Ornithodoros moubata, 60 amino acids (YNRLCIKPRDWIDECDSNEGGERAYFRNGKGGCDSFWICPEDHTGADYYSSYRDCFNACI; ends and bridges not checked; cysteine pairing not given here; UniProt P17726 1-60, looked up)”, the pKi (factor Xa) is given as ~9.30.
With “YIRLAAET [Ac-Y-I-R-L-A-A-E-T, Ac-Y-I-R-L-A-A-E-T (SEQ ID NO:9)]” the pKi (human factor Xa; Table 2, read-out: Ki Xa) was 5.82 and the pKi [5] was < 3.70.
